Structures can show the parent of a compound that is named as a salt.
Columns and labels:
[1] = test system: phenylquinone-induced writhing; experiment: phenylquinone writhing (PQW) test, analgesic activity, oral, mice; type: in vivo; settings: Mus musculus, fasted female white mice, phenylquinone i.p. at 23 or 30 min, ED50 for 50% of mice
Description: A standard procedure for detecting and comparing the analgesic acitivity of the compounds, for which there is good correlation with human efficacy, is the standard phenylquinone writhing (PQW) test modified from Siegmund, et al., Proc. Soc. Exp. Biol. Med. 95, 729 (1957). A test compound suspended in 1% methylcellulose was given orally to fasted (17-21 hours) female white mice, 5-20 animals per double blind test. Aqueous (0.01% phenyl-p-benzoquinone)phenylquinone was injected intraperitoneally at 23 or 30 minutes later using 0.25 ml per mouse. […] The effective analgesic dose for 50% of the mice (ED50) was calculated by the moving average method of Weil, Biometrics 8, 249 (1952).
(§1) Ideally a low ED50 dosage for PQW and a high ED50 dosage for ST (Straub Tail) is desired.

Straub Tail (ST), oral = settings: mouse, in vivo, mice, high ED50 desired
Excerpt: as §1
(§2) There is a close correlation between a drug's addiction liability and its ability to cause Straub tail in mice [Shemano and Wendel, Tox. Appl. Pharm., 6, 334-339 (1964)] at doses much below the LD50. […] This property is the basis of a test for detecting new narcotic antagonist drugs.

[2] = test system: Straub tail in mice induced by morphine; settings: Blumberg, Dayton, and Wolf 1968; cited from earlier work
[3] = test system: Straub tail induced by morphine sulfate; experiment: narcotic antagonist test: prevention of morphine-induced Straub tail in mice; type: in vivo; settings: test drug s.c. 10 min before morphine sulfate 40 mg/kg s.c., observed 20 min, fasted female CF1 S mice; for ED50: Mus musculus, sc, read-out: ED50, prevention of 90° Straub tail (narcotic antagonism)
Description: as §2
17-21 Hour fasted female CF1 S mice 5 per dose were injected subcutaneously (loose skin inside hind limb) with test drug at 0.67, 2, 6, 18, 54, and 162 mg/kg in 0.20 ml 1% Methocel® per mouse. 10 Minutes later, a dosage of 40 mg/kg (base weight) of morphine sulfate in 0.20 ml 1% Methocel® per mouse was given subcutaneously (nape of neck). The mice were observed continuously for the next 20 minutes after the first mouse of a group of 30 had received morphine. Prevention of a 90° Straub tail during this observation period was taken as indication of narcotic antagonist ability. The table below gives the results for several compounds.

| Structure (SMILES) | ED50 [1] [mg/kg] | ED50 (Straub Tail (ST), oral) [mg/kg] | also measured |
| --- | --- | --- | --- |
| C=CCN1C[C@@H]2CC=CC[C@]2(c2ccccc2)C1 (relative stereo) | 140 | > 200 |  |
| CC(C)=CCN1CCC2(C)c3cc(O)ccc3CC1C2C (stereo not shown) [Pentazocine, reference compound] |  |  | prevention of the induction of Straub tail [2]: can prevent the induction of Straub tail; ED50 [3]: 4 mg/kg |
| Oc1cccc([C@]23CC=CC[C@H]2CN(CCc2ccccc2)C3)c1 (relative stereo) [Example 7, N-Phenethyl-3a-(m-hydroxyphenyl)-2,3,3a,4,7,7a-cis-hexahydroisoindole] |  |  | ED50 [3]: 43 mg/kg |
| CN1C[C@@H]2CCCC[C@]2(c2ccccc2)C1 (relative stereo) | 90 | > 200 |  |
| CC1=C(C)C[C@]2(c3cccc(O)c3)CN(CC3CC3)C[C@H]2C1 (relative stereo) [Example 2, N-Cyclopropylmethyl-3a-(m-hydroxyphenyl)-5,6-dimethyl-2,3,3a,4,7,7a-trans-hexahydroisoindole] |  |  | ED50 [3]: 5.2 mg/kg |
| CN1C[C@@H]2CC=CC[C@]2(c2ccccc2)C1 (relative stereo) | 32 | > 162 |  |
| COc1cccc([C@]23CC=CC[C@H]2CN(CCc2ccccc2)C3)c1 (relative stereo) | 26 |  |  |
| COc1cccc([C@]23CC(C)=C(C)C[C@@H]2CN(CC2CC2)C3)c1 (relative stereo) | 78 | > 135 |  |
| Oc1cccc([C@]23CC=CC[C@H]2CN(CCc2ccccc2)C3)c1 (relative stereo) [drawing 74] | 19 |  |  |
| C=CCN1CC[C@]23c4c5ccc(O)c4O[C@H]2C(=O)CC[C@@]3(O)[C@H]1C5 [naloxone] |  |  | prevention of the induction of Straub tail [2]: can prevent the induction of Straub tail |
| CC1=C(C)C[C@]2(c3cccc(O)c3)CN(CC3CC3)C[C@H]2C1 (relative stereo) [drawing 69] | 120 | > 162 |  |
| Oc1cccc([C@]23CC=CC[C@H]2CN(CCc2ccccc2)C3)c1 (relative stereo) [Example 8, N-Phenethyl-3a-(m-hydroxyphenyl)-2,3,3a,4,7,7a-hexahydroisoindole Hydrochloride] |  |  | ED50, prevention of 90° Straub tail (narcotic antagonism) ([3]; Hydrochloride): 54 mg/kg |
| C=CCN1CC[C@]23c4c5ccc(O)c4O[C@H]2[C@@H](O)C=C[C@H]3[C@H]1C5 [nalorphine] |  |  | prevention of the induction of Straub tail [2]: can prevent the induction of Straub tail |

— US4042707A, “3α-Arylhydroisoindoles” (E. I. Du Pont de Nemours and Company, priority 1976, dated 1977)
